Test results from patent US20060270634A1, “Acetal phosphate-derived LPA mimics, PPARgamma activators, and autotaxin inhibitors” (priority 2005, published 2006).
pEC50, pIC50: −log10 of the molar value. Read-outs that look alike come from different tables or passages of the source. One block for each compound: values may come before it.

Assays:
[1] = molecular target: T1, LPA3 (Homo sapiens, UniProt Q9UBY5); assay: Ca2+ transients in RH7777 cells expressing LPA3 (agonist / inhibition of LPA response)
T1 sequence (Q9UBY5 1-353): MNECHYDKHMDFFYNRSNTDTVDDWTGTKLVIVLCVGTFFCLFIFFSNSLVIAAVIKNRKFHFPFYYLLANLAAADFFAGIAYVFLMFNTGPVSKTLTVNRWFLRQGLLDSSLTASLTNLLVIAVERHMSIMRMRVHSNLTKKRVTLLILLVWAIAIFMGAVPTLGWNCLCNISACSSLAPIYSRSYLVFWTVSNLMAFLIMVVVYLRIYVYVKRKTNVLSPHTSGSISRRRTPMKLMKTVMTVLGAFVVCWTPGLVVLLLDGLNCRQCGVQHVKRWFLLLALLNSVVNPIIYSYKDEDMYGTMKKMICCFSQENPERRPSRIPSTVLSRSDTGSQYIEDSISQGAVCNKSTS

[2] = molecular target: LPA1 (Homo sapiens, UniProt Q92633); assay: Ca2+ transients in RH7777 cells expressing LPA1 (agonist / inhibition of LPA response); conditions: for LPA1 effect in words: Tables 2, 4, 6; for EC50: LPA1 (nM) EC50, Table 1
Chain of LPA1 (Q92633 whole entry, species assumed): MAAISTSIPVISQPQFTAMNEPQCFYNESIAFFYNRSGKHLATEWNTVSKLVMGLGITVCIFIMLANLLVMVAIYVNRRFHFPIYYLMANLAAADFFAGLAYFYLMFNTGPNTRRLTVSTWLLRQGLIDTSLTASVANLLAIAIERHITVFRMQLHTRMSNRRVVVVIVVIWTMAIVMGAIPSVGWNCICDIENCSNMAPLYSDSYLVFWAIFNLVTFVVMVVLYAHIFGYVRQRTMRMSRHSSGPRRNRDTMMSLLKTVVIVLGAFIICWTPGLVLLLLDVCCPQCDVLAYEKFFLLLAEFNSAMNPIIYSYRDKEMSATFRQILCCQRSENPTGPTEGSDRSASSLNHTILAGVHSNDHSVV

[3] = molecular target: LPA2 (Homo sapiens, UniProt Q9HBW0); assay: Ca2+ transients in RH7777 cells expressing LPA2 (agonist / inhibition of LPA response); conditions: for LPA2 effect in words: Table 4; for EC50: LPA2 (nM) EC50, Table 1; for IC50: LPA2 (nM) IC50, Table 1
Chain of LPA2 (Q9HBW0 whole entry, species assumed): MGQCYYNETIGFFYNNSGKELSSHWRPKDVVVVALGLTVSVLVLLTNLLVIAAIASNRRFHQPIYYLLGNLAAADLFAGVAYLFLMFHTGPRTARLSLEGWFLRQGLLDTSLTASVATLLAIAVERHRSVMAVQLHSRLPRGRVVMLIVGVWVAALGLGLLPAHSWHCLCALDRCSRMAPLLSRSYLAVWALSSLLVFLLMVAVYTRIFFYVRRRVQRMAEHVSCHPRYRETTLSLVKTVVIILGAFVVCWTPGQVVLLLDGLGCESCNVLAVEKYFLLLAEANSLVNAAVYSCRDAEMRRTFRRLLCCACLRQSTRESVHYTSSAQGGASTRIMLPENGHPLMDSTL

- pIC50 ([1]; read-out: LPA3 IC50, 200 nM LPA): 5.82
- LPA1 effect in words [2]: Weak inhibition
- pEC50 ([3]; LPA2 EC50, Table 4): ~5.00
- LPA2 effect in words [3]: Weak agonist
Structure (SMILES): CCCCCCCCCCCCCCC(F)(F)P(=O)(O)O

Structure (SMILES): CCCCCCCCc1ccc(CCCCCCCOP(O)(O)=S)cc1
- pEC50 [1]: 6.07
- LPA3 effect in words ([1]; Tables 2, 4, 6): Partial agonist
- pEC50 ([2]; LPA1 EC50): 5.32
- LPA1 effect in words [2]: Partial agonist
- pEC50 ([3]; LPA2 EC50, Table 4): 5.22
- LPA2 effect in words [3]: full agonist

- pIC50 [1]: 5.75
- pEC50 [2]: 4.67
- LPA1 effect in words [2]: Partial agonist
- LPA2 effect in words [3]: Weak antagonist
Structure (SMILES): CCCCCCCCc1ccc(CCCCCCCOP(=O)(O)O)cc1

- pEC50 [1]: < 4.52
- pIC50 [1]: 5.54
- pEC50 [2]: < 4.52
- IC50 ([2]; LPA1 (nM) IC50, Table 1): 1110 nM
- pIC50 ([2]; LPA1 IC50, text): 5.96
- pEC50 ([3]; LPA2 EC50, text): 5.93
Structure (SMILES): CCCCCCCCCCCCC1OCC(COP(=O)(O)O)O1 (stereo not shown) [Analog 4]

Structure (SMILES): CCCCCCCC/C=C\CCCCCCCC1OCC(COP(=O)([O-])O)O1.[K+] (stereo not shown) [Analog 5]
- pEC50 [1]: < 4.52
- pIC50 [1]: 6.28
- LPA3 agonist/antagonist activity in words [1]: LPA1/3 antagonist
- LPA2 agonist/antagonist activity in words [3]: full LPA2 agonist
- EC50 [3]: 68 nM

Structure (SMILES): CCCCCCCC/C=C\CCCCCCCC1OCC(COP([O-])(O)=S)O1.[K+] (stereo not shown) [Analog 6]
- pEC50 [1]: 6.19
- pIC50 [1]: < 4.52
- LPA3 agonist/antagonist activity in words [1]: pan-agonists
- pIC50 [2]: < 4.52
- LPA1 agonist/antagonist activity in words [2]: pan-agonists
- EC50 [2]: 981 nM
- LPA2 agonist/antagonist activity in words [3]: pan-agonists
- EC50 [3]: 34 nM

Structure (SMILES): CCCCCCCCc1ccc(CCCCCCC2OCC(COP(=O)(O)O)O2)cc1 (stereo not shown) [Analog 14]
- pEC50 [1]: 6.16
- pIC50 [1]: < 4.52
- pIC50 [2]: 5.33
- EC50 [2]: > 30000 nM
- pIC50 [3]: < 4.52
- EC50 [3]: > 30000 nM

Structure (SMILES): CCCCCCCCc1ccc(CCCCCCC2OCC(COP([O-])(O)=S)O2)cc1.[K+] (stereo not shown) [Analog 15]
- pEC50 [1]: < 4.52
- pIC50 [1]: 6.30
- LPA3 agonist/antagonist activity in words [1]: sub-type selective LPA3 antagonist
- LPA1 agonist/antagonist activity in words [2]: no effect
- EC50 [2]: > 30000 nM
- pIC50 [3]: < 4.52
- LPA2 agonist/antagonist activity in words [3]: no effect
- EC50 [3]: > 30000 nM

- pEC50 [1]: < 4.52
- pIC50 [1]: 6.32
- EC50 [3]: > 10000 nM
- IC50 [3]: > 30000 nM
Structure (SMILES): CCCCCCCC/C=C\CCCCCCC[C@@H]1OC[C@H](COP(=O)(O)O)O1 [Analog 21]

Structure (SMILES): CCCCCCCC/C=C\CCCCCCC[C@@H]1OC[C@H](COP(O)(O)=S)O1 [Analog 22]
- pEC50 [1]: 6.69
- pIC50 [1]: < 4.52
- pIC50 [3]: < 4.52
- EC50 [3]: 1540 nM

- EC50 [3]: > 30000 nM
- IC50 [3]: > 30000 nM
Structure (SMILES): CCCCCCCC/C=C\CCCCCCC[C@H]1OC[C@H](COP(=O)(O)O)O1 [Analog 23]

Structure (SMILES): CCCCCCCC/C=C\CCCCCCC[C@H]1OC[C@H](COP(O)(O)=S)O1 [Analog 24]
- pIC50 [3]: < 4.52
- EC50 [3]: 1320 nM

- EC50 [3]: 1170 nM
- IC50 [3]: > 30000 nM
Structure (SMILES): CCCCCCCC/C=C\CCCCCCC[C@H]1OC[C@@H](COP(=O)(O)O)O1 [Analog 25]
